Reference: ChEMBL document CHEMBL5137030 (Eur J Med Chem, 2022)
Calls of active or inactive are those of the source. No cut-off for these calls is given here.

Tests used:
Human alphaherpesvirus 2 [1] = assay: Antiviral activity against HSV-2 333vhsB infected in African green monkey Vero cells assessed as inhibition of viral replication by measuring reduction in virus-induced cytopathic effect at 50 uM incubated for 20 hrs by colorimetric analysis; format: functional, organism-based
Human alphaherpesvirus 2 [2] = assay: (§1) Antiviral activity against HSV-2 infected in African green monkey Vero cells assessed as inhibition of viral replication by measuring log suppression of virus-induced cytopathic effect at 5 uM incubated for 1 hr followed by washing with PBS and subsequent treatment with compound for 24 hrs by plaque assay; format: functional; details: time 25 hrs
Human alphaherpesvirus 2 [3] = assay: as §1, with “1” for “5”; format: functional; details: time 25 hrs
Human alphaherpesvirus 1 [4] = assay: as §1, with “HSV-1” for “HSV-2”; format: functional; details: time 25 hrs
Human alphaherpesvirus 1 [5] = assay: as §1, with “HSV-1” for “HSV-2”, “1” for “5”; format: functional; details: time 25 hrs
Human alphaherpesvirus 2 [6] = assay: Antiviral activity against HSV-2 infected in African green monkey Vero cells assessed as inhibition of viral replication incubated for 1 hr followed by washing with PBS and subsequent treatment with compound for 24 hrs by plaque reduction assay; format: functional, organism-based; details: Human alphaherpesvirus 2, Vero
[7] = Cytotoxicity against human HepDES19 cells assessed as reduction in cell viability incubated for 72 hrs by MTS assay; format: toxicity, cell-based; details: hepdes19, 72 h
[8] = Apparent permeability of the compound across apical to basolateral side in human Caco-2 cells at 10 uM incubated for 2 hrs; format: ADME, cell-based; details: caco-2, 2 h
Human alphaherpesvirus 2 [9] = assay: Antiviral activity against wild-type HSV-2 186 infected in African green monkey Vero cells assessed as inhibition of viral replication incubated for 1 hr followed by washing with PBS and subsequent treatment with compound for 24 hrs by plaque reduction assay; format: functional, organism-based; details: Human alphaherpesvirus 2, 186, Vero
Human alphaherpesvirus 2 [10] = assay: Antiviral activity against thymidine kinase-deficient ACV-resistant HSV-2 186 TKdeltakpn infected in African green monkey Vero cells assessed as inhibition of viral replication incubated for 1 hr followed by washing with PBS and subsequent treatment with compound for 24 hrs by plaque reduction assay; format: functional, organism-based; details: Human alphaherpesvirus 2, 186 TKdeltakpn
[11] = Half life in mouse liver microsomes at 2 uM in presence of NADPH by LC/MS/MS analysis; format: ADME, Microsome
[12] = Half life in human liver microsomes at 2 uM in presence of NADPH by LC/MS/MS analysis; format: ADME, Microsome
[13] = Half-life in BALB/c mouse at 3 mg/kg, po and 1 mg/kg, iv by LC/MS/MS analysis; format: ADME, organism-based; details: in vivo
[14] = Oral bioavailability in BALB/c mouse at 3 mg/kg by LC/MS/MS analysis; format: ADME, organism-based; details: in vivo
Human alphaherpesvirus 1 [15] = assay: Antiviral activity against HSV-1 infected in African green monkey Vero cells assessed as inhibition of viral replication incubated for 1 hr followed by washing with PBS and subsequent treatment with compound for 24 hrs by plaque reduction assay; format: functional, organism-based; details: Human alphaherpesvirus 1, Vero
Vero = assay: Cytotoxicity against African green monkey Vero cells assessed as reduction in cell viability incubated for 24 hrs by MTS assay; details: chlorocebus sabaeus

Structure (SMILES) | Activity (Human alphaherpesvirus 2 [1]) | log(activity) (Human alphaherpesvirus 2 [2]) | log(activity) (Human alphaherpesvirus 2 [3]) | EC50 (Human alphaherpesvirus 2 [6]) [nM] | CC50 [7] [nM] | further results
Cc1cc(Cc2ccc(OCc3ccccc3)cc2)n(O)c(=O)c1 | Active | 4.25 | 4.1 | 130 | 19000 | log(activity) (Human alphaherpesvirus 1 [4]): 5.18; log(activity) (Human alphaherpesvirus 1 [5]): 4.74; Papp [8]: 9.42 10^-7 cm/s
O=c1cccc(C2CCCCC2)n1O | Active | 5.01 | 1.23 | 550 | 22000 | –
Cc1cc(C2CCCC2)n(O)c(=O)c1 | Active | 2.38 | 0.37 | – | – | –
O=c1cc(-c2ccccc2)cc(Cc2ccccc2)n1O | Active | 5.29 | 2.72 | 410 | 18000 | –
Cc1cc(C2CCC2)n(O)c(=O)c1 | Active | 1.45 | 0.26 | – | – | –
O=c1c2ccccc2cc(Cc2ccccc2)n1O | Active | 4.03 | 0.73 | – | – | –
Cc1cc(Cc2ccccc2Cl)n(O)c(=O)c1 | Active | 4.3 | 2.46 | – | – | –
COc1ccccc1Cc1cc(C)cc(=O)n1O | Active | 3.9 | 1.02 | – | – | –
O=c1cc(-c2ccccc2)cc(C2CCCCC2)n1O | Active | 4.08 | 3.73 | 290 | 20000 | log(activity) (Human alphaherpesvirus 1 [4]): 5.37; log(activity) (Human alphaherpesvirus 1 [5]): 3.43; EC50 (Human alphaherpesvirus 2 [9]): < 300 nM; EC50 (Human alphaherpesvirus 2 [10]): < 300 nM; t1/2 [11]: < 5 min; t1/2 [12]: < 5 min; Papp [8]: 4.33 10^-6 cm/s; t1/2 [13]: < 60 min; bioavailability [14]: 10%
O=c1c2ccccc2cc(-c2ccccc2)n1O | Active | 4.04 | 0.01 | – | – | –
Cc1cc(CC2CCCCC2)n(O)c(=O)c1 | Active | 4.9 | 4.19 | 260 | 28000 | log(activity) (Human alphaherpesvirus 1 [4]): 4.43; log(activity) (Human alphaherpesvirus 1 [5]): 3.98; t1/2 [11]: < 5 min; t1/2 [12]: < 5 min; Papp [8]: 3.14 10^-5cm/s; t1/2 [13]: < 60 min; bioavailability [14]: 10%
O=c1cc(Cc2ccccc2)ccn1O | Active | 0.03 | 0.4 | – | – | –
O=c1ccc(Cc2ccccc2)cn1O | Active | -0.03 | 0.1 | – | – | –
Cc1cc(Cc2ccccc2-c2ccccc2)n(O)c(=O)c1 | Active | 4.49 | 3.17 | 160 | 14000 | t1/2 [11]: < 5 min; t1/2 [12]: < 5 min; Papp [8]: 2.03 10^-7 cm/s
Cc1cc(Cc2cccc(Cl)c2)n(O)c(=O)c1 | Active | 4 | 1.82 | – | – | –
Cc1cc(C2CCOCC2)n(O)c(=O)c1 | Active | 0.09 | -0.23 | – | – | –
O=c1ccc(-c2ccccc2)cn1O [1-HYDROXY-5-PHENYLPYRIDIN-2(1H)-ONE] | Active | 0 | -0.03 | – | – | –
Cc1ccc(-c2cc(CC3CCCCC3)n(O)c(=O)c2)cc1 | Active | 0.34 | 0.02 | – | – | –
Cc1cc(Cc2cccc(-c3ccccc3)c2)n(O)c(=O)c1 | Active | 4.2 | 4.22 | 390 | 24000 | t1/2 [11]: < 5 min; t1/2 [12]: < 5 min; Papp [8]: 1.09 10^-6 cm/s
O=c1ccc(C2CCCCC2)cn1O | Active | 3.62 | 0.67 | – | – | –
Cc1cccc(-c2cc(CC3CCCCC3)n(O)c(=O)c2)c1 | Active | 3.95 | 3.26 | 310 | 16000 | log(activity) (Human alphaherpesvirus 1 [4]): 4.59; log(activity) (Human alphaherpesvirus 1 [5]): 4.22

Structure (SMILES) | Activity (Human alphaherpesvirus 2 [1]) | log(activity) (Human alphaherpesvirus 2 [2]) | log(activity) (Human alphaherpesvirus 2 [3]) | EC50 (Human alphaherpesvirus 2 [6]) [nM] | CC50 [7] [nM] | further results
O=c1cc(C2CCCCC2)ccn1O | Active | 0.04 | 0.2 | – | – | –
Cc1ccccc1-c1cc(CC2CCCCC2)n(O)c(=O)c1 | Active | 5.65 | 0.14 | – | – | –
O=c1c2ccccc2cc(CC2CCCCC2)n1O | Active | 4.77 | 2.68 | 280 | 49000 | log(activity) (Human alphaherpesvirus 1 [4]): 4.32; log(activity) (Human alphaherpesvirus 1 [5]): 4.16; EC50 (Human alphaherpesvirus 1 [15]): 240 nM
O=c1cc(Cc2ccccc2)cc(CC2CCCCC2)n1O | Active | 4.83 | 2.39 | – | – | –
COc1ccc(Cc2cc(C)cc(=O)n2O)cc1 | Active | 4.04 | 1.23 | – | – | –
Cc1cc(C2CCN(C(=O)C(C)C)CC2)n(O)c(=O)c1 | Active | 0.4 | -0.08 | – | – | –
O=c1cc(-c2ccccc2)ccn1O | Active | 0.02 | 0.05 | – | – | –
Nc1nc2c(ncn2COCCO)c(=O)[nH]1 [ACYCLOVIR] | – | 2.9 | 1.79 | – | – | log(activity) (Human alphaherpesvirus 1 [4]): 3.36; log(activity) (Human alphaherpesvirus 1 [5]): 2.42
COc1cccc(Cc2cc(C)cc(=O)n2O)c1 | Active | 4.57 | 2.15 | 270 | 60000 | CC50 (Vero): > 100000 nM; t1/2 [11]: 15 min; t1/2 [12]: 19 min; Papp [8]: 2.43 10^-7 cm/s
O=c1cc(/C=C/c2ccccc2)cc(Cc2ccccc2)n1O | Active | 4.62 | 1.46 | – | – | –
O=c1cc(Cc2ccccc2)cc(Cc2ccccc2)n1O | Active | 4.7 | 0.29 | – | – | –
Cc1cc(Cc2ccc3ccccc3c2)n(O)c(=O)c1 | Active | 3.63 | 1.34 | – | – | –
Cc1cc(C2CCCCCC2)n(O)c(=O)c1 | Active | 5.09 | 4.15 | 160 | 18000 | log(activity) (Human alphaherpesvirus 1 [4]): 5.27; log(activity) (Human alphaherpesvirus 1 [5]): 4.67; EC50 (Human alphaherpesvirus 1 [15]): 60 nM; t1/2 [11]: 8 min; t1/2 [12]: < 5 min; Papp [8]: 5.74 10^-6 cm/s
O=c1c2ccccc2cc(C2CCCCC2)n1O | Active | 4.48 | 1.01 | – | – | –
Cc1cc(Cc2cccc(OCc3ccccc3)c2)n(O)c(=O)c1 | Active | 4.4 | 4.04 | 220 | 22000 | t1/2 [11]: < 5 min; t1/2 [12]: < 5 min; Papp [8]: 1.37 10^-6 cm/s
O=c1cc(/C=C/c2ccccc2)cc(CC2CCCCC2)n1O | Active | 4.77 | 4.95 | 270 | 20000 | log(activity) (Human alphaherpesvirus 1 [4]): 4.42; log(activity) (Human alphaherpesvirus 1 [5]): 4.33
Cc1cc(Cc2ccc(Cl)cc2)n(O)c(=O)c1 | Active | 4.4 | 3.16 | 310 | 26000 | log(activity) (Human alphaherpesvirus 1 [4]): 4.27; log(activity) (Human alphaherpesvirus 1 [5]): 2.44; EC50 (Human alphaherpesvirus 1 [15]): 160 nM; t1/2 [13]: < 60 min; bioavailability [14]: 10%
O=c1cc(-c2ccccc2)cc(CC2CCCCC2)n1O | Active | 5.29 | 4.84 | 390 | 20000 | t1/2 [11]: < 5 min; t1/2 [12]: < 5 min; Papp [8]: 2.75 10^-6 cm/s
O=c1cccc(Cc2ccccc2)n1O | Active | 2.75 | 0.34 | – | – | –
Cc1cc2ccccc2c(=O)n1O | Active | 0.28 | 0.01 | – | – | –
Cc1cc(Cc2ccccc2)n(O)c(=O)c1 | Active | 5.79 | 1.59 | 230 | 42000 | log(activity) (Human alphaherpesvirus 1 [4]): 4.71; log(activity) (Human alphaherpesvirus 1 [5]): 1.07; CC50 (Vero): > 100000 nM; t1/2 [11]: < 5 min; t1/2 [12]: 6 min; Papp [8]: 1.44 10^-5cm/s
